In patent publication US20240034785A1, “RXR-ALPHA BINDERS AND RXR-ALPHA/PLK1 MODULATORS” (NUCMITO PHARMACEUTICALS CO. LTD., priority 2020, published 2024):
Values belong to the molecule of their own block, whether it stands above or below them.

What was measured:
QSG-7701 cells = experiment: Western blot analysis of QSG-7701 normal liver cells; format: cell-based, human; conditions: 12 hr (FIG. 61)
cancer cells = experiment: Mitotic progression of cancer cells (FACS analysis); format: cell-based
Method: Cells were harvested by trypsin digestion, washed with PBS, and fixed with ice-cold 70% ethanol overnight at 4° C. The fixed cells were then washed twice in PBS and treated for 10 min at room temperature with 0.5 μg/mL 4-6-diamidino-2-phenylindole (DAPI) in PBS and analyzed on a FACSCAN™ flow cytometer. Flow cytometry data were analyzed using CYTEXPERT.

RXRα shift = experiment: Western blot of RXRα mobility shift (phosphorylation) in mitotic HeLa cells treated with inhibitors; format: cell-based, human; conditions: for RXRα shift (mobility shift on SDS-PAGE, WB): mitotic HeLa cells released from TT block, inhibitors for 15 min (FIG. 16)
Method: (§1) Cells were synchronized at GUS boundary by a double thymidine block. Briefly, cells cultured in a medium containing 2 mM thymidine for 16 hr were released into a normal medium for 8 hr, subjected to a second thymidine block for 16 hr, and then released into a fresh medium again. Alternatively, cells were synchronized at prometaphase by a thymidine-nocodazole arrest (an 18-hr thymidine arrest and a 5-hr release, followed by a 5-hr 100 ng/mL nocodazole arrest).

PLK1 phosphorylation = experiment: Western blot of PLK1 activation/phosphorylation in mitotic cells; format: cell-based, human
Method: as §1

[1] = target: T1, p-RXRα and PLK1 at the centrosome (Homo sapiens, UniProt P19793); experiment: In situ proximity ligation assay (PLA) in HepG2 cells; format: cell-based; conditions: RO-3306 10 μM for 30 min or compound A1 10 μM for 2 hr (FIG. 56)
T1 construct: endogenous in cells; host or cells: HepG2
T1 sequence (P19793 1-462): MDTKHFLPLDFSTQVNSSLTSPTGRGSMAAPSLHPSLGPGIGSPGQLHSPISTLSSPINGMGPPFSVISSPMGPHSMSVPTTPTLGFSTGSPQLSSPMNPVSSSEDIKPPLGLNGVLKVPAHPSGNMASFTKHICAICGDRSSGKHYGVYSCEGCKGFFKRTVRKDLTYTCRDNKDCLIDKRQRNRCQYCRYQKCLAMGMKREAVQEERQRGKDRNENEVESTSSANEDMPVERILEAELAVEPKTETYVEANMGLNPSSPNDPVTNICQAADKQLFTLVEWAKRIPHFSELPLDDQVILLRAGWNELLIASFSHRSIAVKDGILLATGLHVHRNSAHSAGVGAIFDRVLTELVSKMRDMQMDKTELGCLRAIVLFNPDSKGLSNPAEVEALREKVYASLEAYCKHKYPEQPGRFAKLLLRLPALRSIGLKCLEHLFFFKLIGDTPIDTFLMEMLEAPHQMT
Method: An in situ proximity ligation assay (PLA) was performed in HeLa cells and HepG2 by using a DOULINK™ assay kit. Briefly, cells mounted on glass slides were fixed with methanol at −20° C. for 5 min, then permeabilized with 0.05% Triton X-100 in a PBS buffer for 8 min at 4° C., and blocked with a blocking solution for 60 min at 37° C., followed by incubation with primary antibodies for 60 min at 37° C. The slides were then washed three times with wash buffer A, and PLA labeled secondary antibodies (anti-mouse, minus; anti-rabbit, plus) were added and incubated for 60 min at 37° C. The slides were washed two times with wash buffer A and a ligation solution including a ligase was added for 30 min at 37° C. After ligation, the slides were washed two times with wash buffer A and followed by incubation with an amplification buffer including a polymerase for 100 min at 37° C. After amplification, the slides were washed two times with 1×wash buffer B and one time in 0.01×wash buffer B. Finally, the slides were mounted using a minimal volume of a mounting medium with DAPI and analyzed in a confocal microscope after 15 min.

[2] = system: centrosomal localization of pS56-RXRα or RXRα; experiment: Immunostaining of centrosomal localization of pS56-RXRα or RXRα in metaphase HeLa cells; format: cell-based, human; conditions: metaphase HeLa cells (FIG. 33)
Method: Cells mounted on glass slides were fixed with methanol at −20° C. for 10 min, then permeabilized with 0.05% Triton X-100 in a PBS buffer for 8 min at 4° C., and blocked with 1% bovine serum in PBS for 30 min at room temperature, followed by incubation with primary antibodies at room temperature for 3 hr and detected by FITC-labeled anti-IgG (1:200), anti-goat IgG conjugated with Cy3 (1:200) at room temperature for 1 hr. The cells were costained with 40,6-diamidino-2-phenylindole (DAPI) (1:10,000 dilution) to visualize nuclei. The images were taken under a LEICA TCS SP8 confocal laser scanning microscope system or an LSM-510 confocal laser scanning microscope system.

[3] = target: T2, polo-like kinase 1 (PLK1), full-length (human, UniProt P53350 1-603); experiment: CoIP in HeLa cells (FIG. 5)
T2 construct: Endogenous, FLAG-tagged and His-tagged forms are merged here; also called FLAG-PLK1; Flag-PLK1

[4] = target: T2, polo-like kinase 1 (PLK1), full-length; experiment: CoIP in HeLa cells (FIG. 4)
[5] = target: T3, modified (phosphorylated) RXRα, mobility-shifted form (human, UniProt P19793 1-462, phosphoserine at 56 (as in SEQ ID NO: 1) and phosphoserine at 70 (MS/MS)); experiment: CoIP of PLK1-KD or PLK1-PBD with RXRα in HeLa cells (FIG. 6)
T3 construct: Cdk1-phosphorylated form with reduced mobility on SDS-PAGE; Endogenous and Myc-, FLAG-, GST-tagged forms are merged; also called m-RXRα; p-RXRα
T3 sequence: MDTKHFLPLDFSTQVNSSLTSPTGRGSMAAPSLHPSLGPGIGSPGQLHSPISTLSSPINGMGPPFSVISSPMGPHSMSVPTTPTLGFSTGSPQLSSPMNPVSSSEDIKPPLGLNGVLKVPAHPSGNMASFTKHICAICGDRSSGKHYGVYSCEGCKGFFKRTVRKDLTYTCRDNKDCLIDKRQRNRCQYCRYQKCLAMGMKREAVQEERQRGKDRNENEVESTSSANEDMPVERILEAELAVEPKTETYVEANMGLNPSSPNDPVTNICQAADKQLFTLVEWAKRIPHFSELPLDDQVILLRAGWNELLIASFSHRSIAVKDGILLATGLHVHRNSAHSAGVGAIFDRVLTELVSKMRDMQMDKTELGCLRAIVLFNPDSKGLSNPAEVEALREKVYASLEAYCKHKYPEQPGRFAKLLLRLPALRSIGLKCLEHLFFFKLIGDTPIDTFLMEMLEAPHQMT

[6] = target: T4, regular 55 kDa RXRα (unmodified form) (human, UniProt P19793 1-462); experiment: co-immunoprecipitation from HeLa cells (IP: FLAG, WB: Myc)
T4 construct: Non-shifted band of RXRα; Endogenous and tagged (Myc, FLAG, GST) forms are merged; also called regular RXRα; GST-RXRα (not phosphorylated)
T4 sequence: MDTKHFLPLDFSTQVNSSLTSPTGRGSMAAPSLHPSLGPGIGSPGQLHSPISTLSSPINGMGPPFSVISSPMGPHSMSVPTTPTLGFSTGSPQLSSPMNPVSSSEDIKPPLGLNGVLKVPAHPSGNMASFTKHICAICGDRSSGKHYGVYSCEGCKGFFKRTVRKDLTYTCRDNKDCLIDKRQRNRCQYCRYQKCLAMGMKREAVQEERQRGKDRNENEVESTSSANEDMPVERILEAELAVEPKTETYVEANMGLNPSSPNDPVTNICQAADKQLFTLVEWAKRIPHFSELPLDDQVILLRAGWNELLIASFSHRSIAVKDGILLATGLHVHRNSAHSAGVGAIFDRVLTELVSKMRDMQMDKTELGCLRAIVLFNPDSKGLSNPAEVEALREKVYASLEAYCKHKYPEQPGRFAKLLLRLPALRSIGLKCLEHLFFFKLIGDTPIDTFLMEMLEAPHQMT

[7] = target: T5, retinoic acid receptor-γ (RARγ) (UniProt P13631 1-454, limits assumed); experiment: as above
T5 construct: also called FLAG-RARγ
T5 sequence (looked up): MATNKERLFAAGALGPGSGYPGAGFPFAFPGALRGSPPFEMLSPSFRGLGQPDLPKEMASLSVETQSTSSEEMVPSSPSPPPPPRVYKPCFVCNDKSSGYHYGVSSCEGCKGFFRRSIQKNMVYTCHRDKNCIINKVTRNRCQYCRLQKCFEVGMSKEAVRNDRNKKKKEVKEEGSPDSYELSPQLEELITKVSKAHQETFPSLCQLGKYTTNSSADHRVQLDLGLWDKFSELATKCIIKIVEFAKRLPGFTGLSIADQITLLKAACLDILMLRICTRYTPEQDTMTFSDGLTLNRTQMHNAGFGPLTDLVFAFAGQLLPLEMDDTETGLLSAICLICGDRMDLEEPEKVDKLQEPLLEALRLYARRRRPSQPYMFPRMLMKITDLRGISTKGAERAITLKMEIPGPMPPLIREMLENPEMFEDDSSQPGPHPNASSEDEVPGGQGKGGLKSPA

[8] = target: T5, retinoic acid receptor-γ (RARγ); experiment: CoIP in HeLa cells (FIG. 3)
[9] = target: T2, polo-like kinase 1 (PLK1), full-length; experiment: CoIP in HeLa cells (FIG. 3)

Molecule: CC[C@@H]1C(=O)N(C)c2cnc(Nc3ccc(C(=O)NC4CCN(C)CC4)cc3OC)nc2N1C1CCCC1 [BI2536]
effect in p-RXRα-negative noncancerous QSG-7701 cells (QSG-7701 cells): active even in QSG-7701 cells
inducing mitosis arrest (cancer cells): inducing mitosis arrest
mitotic progression of cancer cells (cancer cells): inhibited mitotic progression of cancer cells
RXRα shift (mobility shift on SDS-PAGE, WB) (RXRα shift): did not inhibit

Molecule: O=C1NC(=NCc2cccs2)S/C1=C\c1ccc2ncccc2c1 [RO-3306]
PLK1 activation / PLK1 phosphorylation (PLK1 phosphorylation): reduced PLK1 phosphorylation in a dose dependent manner
level of p-RXRα detected by the anti-pS56-RXRα antibody (RXRα shift; mitotic HeLa cells): reduced
RXRα shift (mobility shift on SDS-PAGE, WB) (RXRα shift): strongly inhibited RXRα shift in a dose dependent manner
in situ interaction between p-RXRα and PLK1 at the centrosome (PLA) [1]: inhibited the in situ interaction
centrosomal RXRα staining by the regular anti-RXRα antibody [2]: inhibited centrosomal RXRα staining
centrosomal staining by the anti-pS56-RXRα antibody [2]: eliminated centrosomal staining by the antibody

Molecule: Oc1c2ccccc2c2c3c(cccc13)N=N2 [SP600125]
RXRα shift (mobility shift on SDS-PAGE, WB) (RXRα shift): no effect

Molecule: Cc1cc(Nc2cc(N3CCN(C)CC3)nc(Sc3ccc(NC(=O)C4CC4)cc3)n2)n[nH]1 [VX680]
PLK1 activation / PLK1 phosphorylation (PLK1 phosphorylation): attenuated

Molecule: CN1CC[C@H](c2c(O)cc(O)c3c(=O)cc(-c4ccccc4Cl)oc23)[C@H](O)C1 [flavopiridol]
RXRα shift (mobility shift on SDS-PAGE, WB) (RXRα shift): strongly inhibited RXRα shift in a dose dependent manner

Molecule: CC(=O)c1c(C)c2cnc(Nc3ccc(N4CCNCC4)cn3)nc2n(C2CCCC2)c1=O [palbociclib]
RXRα shift (mobility shift on SDS-PAGE, WB) (RXRα shift): no effect

Molecule: CC1=CC(=O)C(C(C)C)=C/C1=N/OC(=O)c1ccccc1C [poloxin]
mitotic progression of cancer cells (cancer cells): inhibited mitotic progression of cancer cells

B1: RXRα mutant lacking the N-terminal A/B domain (receptor)
chain: CAICGDRSSGKHYGVYSCEGCKGFFKRTVRKDLTYTCRDNKDCLIDKRQRNRCQYCRYQKCLAMGMKREAVQEERQRGKDRNENEVESTSSANEDMPVERILEAELAVEPKTETYVEANMGLNPSSPNDPVTNICQAADKQLFTLVEWAKRIPHFSELPLDDQVILLRAGWNELLIASFSHRSIAVKDGILLATGLHVHRNSAHSAGVGAIFDRVLTELVSKMRDMQMDKTELGCLRAIVLFNPDSKGLSNPAEVEALREKVYASLEAYCKHKYPEQPGRFAKLLLRLPALRSIGLKCLEHLFFFKLIGDTPIDTFLMEMLEAPHQMT
notes: also called RXRα-AA/B (so in the source)
binding result [3]: no binding

The next lines start with the values.

binding result [4]: no binding
B2: RXRα-LBD (ligand-binding domain of RXRα) (receptor)
chain: TSSANEDMPVERILEAELAVEPKTETYVEANMGLNPSSPNDPVTNICQAADKQLFTLVEWAKRIPHFSELPLDDQVILLRAGWNELLIASFSHRSIAVKDGILLATGLHVHRNSAHSAGVGAIFDRVLTELVSKMRDMQMDKTELGCLRAIVLFNPDSKGLSNPAEVEALREKVYASLEAYCKHKYPEQPGRFAKLLLRLPALRSIGLKCLEHLFFFKLIGDTPIDTFLMEMLEAPHQMT
notes: also called LBD of RXRα

binding result [5]: no binding
binding result [6]: no binding
B3: PLK1-KD (N-terminal kinase domain of PLK1) (enzyme, UniProt P53350 1-326, looked up)
chain: MSAAVTAGKLARAPADPGKAGVPGVAAPGAPAAAPPAKEIPEVLVDPRSRRRYVRGRFLGKGGFAKCFEISDADTKEVFAGKIVPKSLLLKPHQREKMSMEISIHRSLAHQHVVGFHGFFEDNDFVFVVLELCRRRSLLELHKRRKALTEPEARYYLRQIVLGCQYLHRNRVIHRDLKLGNLFLNEDLEVKIGDFGLATKVEYDGERKKTLCGTPNYIAPEVLSKKGHSFEVDVWSIGCIMYTLLVGKPPFETSCLKETYLRIKKNEYSIPKHINPVAASLIQKMLQTDPTARPTINELLNDEFFTSGYIPARLPITCLTIPPRFS
notes: domain: kinase domain (KD)

binding result [7]: no binding
B4: RXRα-1-235, regular form (receptor)
chain: MDTKHFLPLDFSTQVNSSLTSPTGRGSMAAPSLHPSLGPGIGSPGQLHSPISTLSSPINGMGPPFSVISSPMGPHSMSVPTTPTLGFSTGSPQLSSPMNPVSSSEDIKPPLGLNGVLKVPAHPSGNMASFTKHICAICGDRSSGKHYGVYSCEGCKGFFKRTVRKDLTYTCRDNKDCLIDKRQRNRCQYCRYQKCLAMGMKREAVQEERQRGKDRNENEVESTSSANEDMPVERI

binding result [8]: no binding
binding result [9]: binds
B5: RXRα-1-235, modified form with mobility shift (receptor)
chain: MDTKHFLPLDFSTQVNSSLTSPTGRGSMAAPSLHPSLGPGIGSPGQLHSPISTLSSPINGMGPPFSVISSPMGPHSMSVPTTPTLGFSTGSPQLSSPMNPVSSSEDIKPPLGLNGVLKVPAHPSGNMASFTKHICAICGDRSSGKHYGVYSCEGCKGFFKRTVRKDLTYTCRDNKDCLIDKRQRNRCQYCRYQKCLAMGMKREAVQEERQRGKDRNENEVESTSSANEDMPVERI
modifications: phosphorylated (mobility-shifted); sites not stated for this construct
notes: A/B domain plus DBD
